# According to patent US8470789B2, “Method for inducing and accelerating cells” (DCPrime B.V., priority 2008, dated 2013):
# How the values were obtained:
# [1] = tested on: CD34+ MUTZ3 cells; experiment: Drug-induced differentiation of isolated CD34+ MUTZ3 cells; assay type: cell-based, human; settings: for share of induced CD1a+ cells also expressing Langerin: CD34+ sorted cells
# Method: (§1) For mitoxantrone and doxorubicin cultures, 0.1-0.2 million cells/ml of MUTZ3 progenitors or CD34+, CD14+ and double negative (DN) magnetic bead sorted (MACS) MUTZ3 subsets (Miltenyi Biotec, Bergisch Gladbach, Germany) were seeded in 12-well plates in MUTZ3 routine medium or MUTZ3-DC/LC medium in the absence or presence of 1.04 nM, 2.08 nM, 5.6 nM, 16.7 nM mitoxantrone or 16.7 nM or 100 nM doxorubicin and were cultured for 72-96 hours before quantification of viable cells by trypan blue exclusion and phenotypic characterization by flowcytometry. DC and LC were matured (as above) on day 3 or 4 for 24 hours and were functionally tested in mixed leukocyte reaction or migration assays. In case of ABC transporter inhibition, 200 nM Ko-143 was added on day 0 to block BCRP activity.
# (§2) Cells were immunophenotyped using the following FITC- and for PE-conjugated Mabs reactive against: CD1a (1:25), CD54 (1:25), CD80 (1:25), CD86 (1:25), CD40 (1:10) (PharMingen, San Diego, Calif.), CD14 (1:25), HLA-DR (1:25), DC-SIGN (1:10) (BD Biosciences, San Jose, Calif.), CD83 (1:10), CD34 (1:10), Langerin (1:10) (Immunotech, Marseille, France). In short, 2.5 to 5·10^4 cells were washed in PBS supplemented with 0.1% BSA and 0.02% NaN3 and incubated with specific or corresponding control Mabs for 30 minutes at 4° C. Where applicable, AnnexinV and/or PI (Propidium iodide) were added after marker staining and 10 minutes prior to analysis. Cells were washed and analyzed on a FACS-calibur flow cytometer (Becton and Dickinson, San Jose, Calif.) equipped with CellQuest analysis software and the results were expressed as mean or median fluorescence intensity or the percentage of positive cells.
# To see whether the skewing effect was due to CD34^+ cell death, automatically leading to an altered CD34^+/CD14^+ ratio or whether it induced differentiation of CD34^+ cells into CD14^+ cells and LC, isolated CD34^+ and CD14^+ cells were incubated with 16.7 nM mitoxantrone or 100 nM doxorubicin for 72 hours and were analyzed for differentiation induction.
# [2] = tested on: MUTZ3 progenitors; experiment: 96 hour cytotox assay (Trypan blue exclusion); assay type: cell-based, human
# Method: as §1
# MUTZ3 progenitor cells were analyzed for their sensitivity to the cytostatic drug mitoxantrone. […] (An example of such trypan blue assay is: place a suitable volume of a cells suspension in appropriate tube add an equal volume of 0.4% Trypan blue and gently mix, let stand for 5 minutes at room temperature. Place 10 μl of stained cells in a hemocytometer and count the number of viable (unstained) and dead (stained) cells. Calculate the average number of unstained cells in each quadrant, and multiply by 2*10^4 to find cells/ml. The percentage of viable cells is the number of viable cells divided by the number of dead and viable cells, and the IC50 can be determined)
# [3] = tested on: MUTZ3 progenitors; experiment: Expansion and DC marker expression of MUTZ3 progenitors cultured with drug (flow cytometry); assay type: cell-based, human
# Method: as §1, §2
# Similar experiments were carried out with the drug doxorubicin.
# [4] = tested on: MUTZ3 subpopulations (CD14+, CD34+, DN); experiment: Apoptosis and cell death (Annexin V) in MACS-separated MUTZ3 subpopulations; assay type: cell-based, human
# Method: as §1, §2
# [5] = tested on: CD14+ MUTZ3 cells; experiment: Drug-induced differentiation of isolated CD14+ MUTZ3 cells; assay type: cell-based, human; settings: 72 hours, vs PBS control
# Method: as §1
# as §2, with “In short, 2.5 to 5·10^4 cells were washed in PBS supplemented with 0.1% BSA and 0.02% NaN3 and incubated with specific or corresponding control Mabs for 30 minutes at 4° C. Where applicable, AnnexinV and/or PI (Propidium iodide) were added after marker staining and 10 minutes prior to analysis.” left out, “cells. […]” for “cells.”
# [6] = tested on: MUTZ3-LC cultures; experiment: Acceleration of MUTZ3-LC differentiation in the presence of cytokines; assay type: cell-based, human
# Method: The AML-derived CD34+ MUTZ3 cell line was cultured as described before (Masterson A. J. (2002) Blood 100, 701-703.). In brief, MUTZ3 progenitors were cultured in MEM-alpha (Minimum essential medium, Gibco) containing 20% fetal calves serum (FCS), 100 IU/ml sodium-penicillin, 100 microg/ml streptomycin, 2 mM L-glutamine (pen/strep/glut), 50 microM beta-mercaptoethanol (2ME) and 10% 5637 conditioned medium (MUTZ3 routine medium) in 12-well plates (Co-star) at a concentration of 0.2 million cells/ml and were passaged twice weekly. LC were cultured in MEM-alpha containing 20% FCS, pen/strep/glut, 2ME and 10 ng/ml TGF-beta 1 (Biovision, Mountain View, Calif.), 100 ng/ml rhGM-CSF (Sagramostim, Berlex) and 2.5 ng/ml TNFalpha (Strathmann Biotec) (MUTZ3-LC medium) for 10 days in 12-well plates at a concentration of 0.1 million cells/ml, adding cytokines at day 0, 4 and 7. Interstitial DC were cultured in MEM-alpha containing 20% FCS, pen/strep/glut, 2ME and 10 ng/ml IL-4 (R&D), 100 ng/ml rhGM-CSF and 2.5 ng/ml TNFalpha (MUTZ3-DC medium) Where applicable, immature DC and LC were matured, respectively, by adding 50 ng/ml TNFalpha, 100 ng/ml IL-6 (Strathmann Biotec), […] (Strathmann Biotec) and 1 microg/ml prostaglandin E2 (PGE2) (Sigma Aldrich) for 48 hours.
# as §1, §2
# Next we tested whether the addition of mitoxantrone or doxorubicin at the start of MUTZ3-LC cultures could boost differentiation. […] In FIG. 4A FSC/SSC plots of day 4 LC cultured with PBS or mitoxantrone and CD1a/Langerin expression on these cultures are depicted.
# [7] = tested on: CD34+ heamatopoietic precursors isolated from human blood; experiment: Response of CD34+ heamatopoietic progenitors from blood to mitoxantrone; assay type: cell-based; settings: 16.7 nM mitoxantrone
# [8] = tested on: CD14+ monocytes isolated from blood; experiment: Response of CD14+ monocytes isolated from blood to mitoxantrone; assay type: cell-based, human
# [9] = tested on: MUTZ3-DC and -LC cultures; experiment: Titration of mitoxantrone in MUTZ3-DC and -LC cultures, phenotype analysis; assay type: cell-based, human
# Method: as §1, §2
# In MUTZ3-DC and -LC cultures, a 2-step titration of the 16.7 nM mitoxantrone concentration was performed and DC/LC phenotypes were analyzed after 72-96 hours.
# [10] = tested on: MUTZ3-DC; experiment: Trans-well migration towards CCL19 and CCL21; assay type: cell-based, human; settings: day 4 mitoxantrone-generated DC
# Method: as §1
# (§3) If such mitoxantrone-generated DC are to be used for future vaccination strategies, they need to be functionally fully active. Therefore MUTZ3-DC cultured in the absence or presence of mitoxantrone, were analyzed in a trans-well assay for their capacity to migrate towards the chemokines CCL19 and CCL21 (FIG. 7A) and were tested in a MLR for their capacity to stimulate allogeneic T cell proliferation (FIG. 7B).
# [11] = tested on: MUTZ3-DC / peripheral blood lymphocytes; experiment: Mixed leukocyte reaction (MLR), T cell proliferation; assay type: cell-based, human; settings: day 4 mitoxantrone-generated DC
# Method: 1·10^2-3·10^4 DC were co-cultured with 1·10^5 peripheral blood lymphocytes for 4 days in 96-wells plates in IMDM (Iscove's modified dulbecco's medium) containing 10% human pooled serum (HPS), pen/strep/glut and 2ME. At day 4, 2.5 μCi/ml [^3H]-thymidine (6.7 Ci/mmol, MP Biomedicals, Irvine, Calif.) was added per well for 16 hours. Plates were harvested onto glass fiber filtermats (Packard Instruments, Groningen, The Netherlands) using a Skatron cell harvester (Skatron Instruments, Norway), and [^3H]-thymidine incorporation was quantified using a Topcount NXT Microbetacounter (Packard, Meriden, Conn.).
# as §3
# [12] = tested on: human skin DC; experiment: Human skin explant DC migration after intradermal injection; assay type: cell-based
# Method: To establish whether mitoxantrone could be beneficial as a local adjuvant, human skin explants were intra-dermally injected with GM-CSF and IL-4 in combination with 2.08 nM, 5.6 nM or 16.7 nM mitoxantrone and 6 mm punch biopsies were floated in medium containing the same concentration of mitoxantrone. Skin DC were allowed to migrate from the biopsies for 2 days, after which they were harvested, quantified and phenotyped.
# [13] = 2.08 nM mitoxantrone, mature day 4 MUTZ3-DC/LC
compound,measurement,setting,value
COc1ccc2c3c([nH]c2c1)[C@H](CC(C)C)N1C(=O)[C@H](CCC(=O)OC(C)(C)C)NC(=O)[C@@H]1C3 [Ko-143],abrogation of mitoxantrone-induced CD1a and Langerin expression by BCRP inhibitor,"[1]; 200 nM Ko-143 added on day 0, mitoxantrone-treated CD34+ MUTZ3 cells",could not abrogate
COc1cccc2c1C(=O)c1c(O)c3c(c(O)c1C2=O)C[C@@](O)(C(=O)CO)C[C@@H]3O[C@H]1C[C@H](N)[C@H](O)[C@H](C)O1 [doxorubicin],IC70 concentration on MUTZ3,[2]; cytotoxic effect,~100 nM
same,LC differentiation of MUTZ3 progenitors,[3]; 16.7 nM doxorubicin,no effects were observed
same,LC differentiation of MUTZ3 progenitors,[3]; IC70 concentration of doxorubicin (~100 nM),induced LC differentiation of MUTZ3 progenitors
same,"apoptosis and cell death in the three MUTZ3 subpopulations, compared with mitoxantrone",[4]; 100 nM doxorubicin,Comparable results
same,CD1a and Langerin expression on CD34+ MUTZ3 cells,"[1]; 100 nM doxorubicin, 72 hours",induced CD1a and Langerin expression
same,share of induced CD1a+ cells also expressing Langerin,"[1]; 100 nM doxorubicin, 72 hours",approximately 50%
same,percentages of CD1a+ or Langerin+ cells in CD14+ cells,[5]; 100 nM doxorubicin,not affected
O=C1c2c(O)ccc(O)c2C(=O)c2c(NCCNCCO)ccc(NCCNCCO)c21 [mitoxantrone],IC50,"[2]; Homo sapiens, 96 hour, Trypan blue exclusion, n=3",1.5 ± 0.5 nM
same,IC60 concentration on MUTZ3 progenitors,[2]; cytotoxic effect,5.6 nM
same,IC70 concentration on MUTZ3,[2]; cytotoxic effect,16.7 nM
same,cell division (expansion),"[3]; 5.6 nM and 16.7 nM mitoxantrone, 72 hours",dramatically compromising cell division
same,"differentiation of MUTZ3 progenitors (CD34+/CD14+ ratio, CD1a, Langerin, CD86, CD80)","[3]; 5.6 nM and 16.7 nM mitoxantrone, 72 hours, no differentiating cytokines",drove the surviving MUTZ3 progenitors to differentiation
same,"apoptosis and cell death, CD34+ population","[4]; mitoxantrone, 72 hours",sensitive to the drug
same,"apoptosis and cell death, CD14+ population","[4]; mitoxantrone, 72 hours, Annexin V",not affected
same,"apoptosis and cell death, DN population","[4]; mitoxantrone, 72 hours, sensitivity relative to CD34+",to a lesser extent
same,share of induced CD1a+ cells also expressing Langerin,"[1]; 16.7 nM mitoxantrone, 72 hours",approximately 50%
same,CD1a and Langerin expression in CD34+ subset,"[1]; 16.7 nM mitoxantrone, 72 hours, n=3, p=0.02 CD1a, p=0.03 Langerin",significant increase
same,percentages of CD1a+ or Langerin+ cells in CD14+ cells,[5]; 16.7 nM mitoxantrone,not affected
same,expression levels of HLA-DR and CD54,"[6]; 16.7 nM mitoxantrone, day 4",higher expression levels
same,expression of co-stimulatory molecules CD80 and CD86,"[6]; 16.7 nM mitoxantrone, day 4",enhanced expression
same,percentage of CD14+ and CD34+ cells,"[6]; 16.7 nM mitoxantrone, day 4, 3 experiments, p=0.04 and p=0.02",significant decrease
same,amount of cells expressing maturation marker CD83,"[6]; 16.7 nM mitoxantrone, day 4, p=0.03",significant raise
same,day on which fully differentiated cells were obtained,"[6]; mitoxantrone with cytokines, control cultures 8-10 days",4 days
same,cells CD1a hi Langerin+,"[6]; single dose 16.7 nM mitoxantrone at day 0, read day 4, control 25%",76%
same,CD34+ and CD14+ cell content,"[7]; 72 hours, Flt3-L and SCF",loss of most CD34 positive cells and an increase in CD14 positive cells
same,percentage of CD1a+ Langerin+ cells,"[7]; within 72 hours, LC-skewing cytokines, n=2",increase
same,cell viability,[8],no effect
same,differentiation induction,[8],nor was any differentiation induction observed
same,effect on MUTZ3-DC and -LC differentiation,"[9]; 2.08 nM mitoxantrone, 72-96 hours",robust effect
same,HLA-DR expression vs control cultures,"[9]; 2.08 nM mitoxantrone, day 4 vs day 7 control",even higher than on the control cultures
same,"amount of CD1a, Langerin, CD80, CD40 and CD83 expressing cells",[9]; [13],increased
same,"expression levels of CD80, CD86, CD40 and HLA-DR",[9]; [13],enhanced
same,Langerin expression in MUTZ3-DC cultures,[9]; cultures supplied with mitoxantrone,increased
same,capacity to migrate towards CCL19 and CCL21,[10],comparable to day 7 matured control DC
same,capacity to stimulate allogeneic T cell proliferation,[11],equipped to induce T cell proliferation
same,increase in amount of migrated skin DC,"[12]; 2.08 nM mitoxantrone with GM-CSF and IL-4, intradermal, 2 days",50-60%
same,increase in amount of migrated skin DC,"[12]; 5.6 nM mitoxantrone with GM-CSF and IL-4, intradermal, 2 days",50-60%
same,amount of migrated skin DC,"[12]; 16.7 nM mitoxantrone with GM-CSF and IL-4, intradermal, 2 days",only slightly increased
same,amount of skin emigrating DC,"[12]; low dose of mitoxantrone in plain medium, intradermal",increased the amount of skin emigrating DC
